Source: article PMC6220272, “Scaffold-Hopping from Synthetic Drugs by Holistic Molecular Representation” (Scientific Reports, 2018)

Columns and labels:
Type in all cases: cell-based
PPARα = biological target: T1, PPARα (Homo sapiens, UniProt Q07869); experiment: Gal4 hybrid reporter gene assay PPARα (selectivity profiling)
T1 construct: expressed in transfected cells; host or cells: HEK293T
T1 sequence (Q07869 239-466 limits assumed): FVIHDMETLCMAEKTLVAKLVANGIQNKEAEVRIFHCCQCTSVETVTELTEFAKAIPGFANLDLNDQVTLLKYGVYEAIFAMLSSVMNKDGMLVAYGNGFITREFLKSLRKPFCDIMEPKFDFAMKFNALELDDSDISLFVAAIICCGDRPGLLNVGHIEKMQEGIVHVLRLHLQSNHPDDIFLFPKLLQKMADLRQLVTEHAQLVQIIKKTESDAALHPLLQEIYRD
Protocol: (§1) Moreover, 7 was characterized for its ability to modulate RXR target gene expression under more physiological conditions. Hepatoma cells (HepG2) were incubated with 7 (30 µM) or reference RXR agonist bexarotene (9, 1 µM) for eight hours and mRNA expression of RXR regulated genes ATP-binding cassette transporter A1 (ABCA1), angiopoietin like protein 4 (ANGPTL4) and apolipoprotein E (ApoE) was analysed by quantitative real-time PCR.
(§2) The Gal4 hybrid reporter gene assays were conducted as reported previously[39]–[41]. pFA-CMV-based constructs comprising the ligand binding domain of the human nuclear receptor in question were used as expression plasmids for the chimera receptors. pFR-Luc (Stratagene) served as reporter plasmid and pRL-SV40 (Promega) for normalization of transfection efficiency and cell growth. The assays were conducted in 96-well format in HEK293T cells that were cultured as described previously[39]–[41]. Transient transfection was carried out using Lipofectamine LTX reagent (Invitrogen) according to the manufacturer’s protocol. After transfection and incubation with test compounds (12–14 h), cells were assayed for luciferase activity using Dual-Glo™ Luciferase Assay System (Promega) according to the manufacturer’s protocol. Luminescence was measured with an Infinite M200 luminometer (Tecan Deutschland GmbH). […]

PPARγ = biological target: T2, PPARγ (Homo sapiens, UniProt P37231); experiment: Gal4 hybrid reporter gene assay PPARγ (selectivity profiling)
T2 construct: expressed in transfected cells; host or cells: HEK293T
T2 sequence (P37231 238-503 limits assumed): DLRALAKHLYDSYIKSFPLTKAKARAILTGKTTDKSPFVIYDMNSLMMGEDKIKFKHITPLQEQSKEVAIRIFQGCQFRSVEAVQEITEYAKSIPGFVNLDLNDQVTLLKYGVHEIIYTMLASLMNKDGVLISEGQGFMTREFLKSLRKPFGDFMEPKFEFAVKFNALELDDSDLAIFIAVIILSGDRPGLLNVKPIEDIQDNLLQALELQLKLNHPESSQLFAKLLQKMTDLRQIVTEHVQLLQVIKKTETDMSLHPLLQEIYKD
Protocol: as §1, §2

LXRα = biological target: T3, LXRα (Homo sapiens, UniProt Q13133); experiment: Gal4 hybrid reporter gene assay LXRα (selectivity profiling)
T3 construct: expressed in transfected cells; host or cells: HEK293T
T3 sequence (Q13133 209-447 limits assumed): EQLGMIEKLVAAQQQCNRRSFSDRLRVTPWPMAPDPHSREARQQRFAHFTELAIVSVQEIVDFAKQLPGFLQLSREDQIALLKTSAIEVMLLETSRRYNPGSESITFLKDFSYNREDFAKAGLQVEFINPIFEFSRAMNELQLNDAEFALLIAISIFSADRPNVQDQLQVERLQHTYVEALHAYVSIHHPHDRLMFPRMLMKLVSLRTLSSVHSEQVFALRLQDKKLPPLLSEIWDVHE
Protocol: as §1, §2

[1] = biological target: T4, farnesoid X receptor [FXR] (Homo sapiens, UniProt Q96RI1); experiment: Gal4 hybrid reporter gene assay FXR (selectivity profiling)
T4 construct: expressed in transfected cells; host or cells: HEK293T
T4 sequence (Q96RI1 262-486 limits assumed): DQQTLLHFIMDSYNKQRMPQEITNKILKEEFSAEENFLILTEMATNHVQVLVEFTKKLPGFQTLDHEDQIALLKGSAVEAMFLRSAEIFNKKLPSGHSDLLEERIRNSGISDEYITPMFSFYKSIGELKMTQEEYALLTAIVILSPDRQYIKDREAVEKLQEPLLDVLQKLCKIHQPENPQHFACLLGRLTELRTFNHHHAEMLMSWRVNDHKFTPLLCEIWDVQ
Protocol: as §1, §2

RARβ = biological target: T5, RARβ (Homo sapiens, UniProt P10826); experiment: Gal4 hybrid reporter gene assay RARβ (selectivity profiling)
T5 construct: expressed in transfected cells; host or cells: HEK293T
T5 sequence (P10826 183-417 limits assumed): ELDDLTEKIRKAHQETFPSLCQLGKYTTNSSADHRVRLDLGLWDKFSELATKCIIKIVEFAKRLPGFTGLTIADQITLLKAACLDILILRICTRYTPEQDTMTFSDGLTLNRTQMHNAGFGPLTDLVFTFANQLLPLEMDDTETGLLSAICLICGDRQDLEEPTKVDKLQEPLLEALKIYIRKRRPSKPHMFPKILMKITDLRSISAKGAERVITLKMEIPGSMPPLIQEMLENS
Protocol: as §1, §2

RARγ = biological target: T6, RARγ (Homo sapiens, UniProt P13631); experiment: Gal4 hybrid reporter gene assay RARγ (selectivity profiling)
T6 construct: expressed in transfected cells; host or cells: HEK293T
T6 sequence (P13631 185-419 limits assumed): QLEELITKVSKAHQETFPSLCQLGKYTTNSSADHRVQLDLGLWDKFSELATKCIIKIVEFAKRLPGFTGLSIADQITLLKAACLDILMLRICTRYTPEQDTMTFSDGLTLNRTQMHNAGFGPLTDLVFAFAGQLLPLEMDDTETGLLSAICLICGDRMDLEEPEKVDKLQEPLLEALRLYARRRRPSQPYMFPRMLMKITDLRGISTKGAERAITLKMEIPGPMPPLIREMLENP
Protocol: as §1, §2

[2] = biological target: T7, constitutive androstane receptor [CAR] (Homo sapiens, UniProt Q14994); experiment: Gal4 hybrid reporter gene assay CAR (selectivity profiling)
T7 construct: expressed in transfected cells; host or cells: HEK293T
T7 sequence (Q14994 109-352 limits assumed): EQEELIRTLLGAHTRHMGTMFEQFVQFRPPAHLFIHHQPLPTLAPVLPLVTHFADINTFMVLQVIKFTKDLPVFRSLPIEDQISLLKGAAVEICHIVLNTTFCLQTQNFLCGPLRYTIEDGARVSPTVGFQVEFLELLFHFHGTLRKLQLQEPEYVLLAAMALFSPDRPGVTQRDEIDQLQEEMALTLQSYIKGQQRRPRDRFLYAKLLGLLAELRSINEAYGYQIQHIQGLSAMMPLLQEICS
Protocol: as §1, §2

CC(C)(C)c1cc(/C=N/NC(=O)c2ccc(N)cc2)cc(C(C)(C)C)c1 [Compound 7]
no activity: activity on PPARα (PPARα) | activity on PPARγ (PPARγ) | activity on LXRα (LXRα) | activity on FXR [1] | activity on RARβ (RARβ) | activity on RARγ (RARγ) | activity on CAR [2]
